Laboratory results taken from US20240207265A1, “TREATMENT OF CNS DISEASES WITH sGC STIMULATORS” (Tisento Therapeutics Inc., priority 2021, published 2024).

Columns and labels:
[1] = system: sGC enzyme; assay: cGMP GloSensor cell-based assay, 384-well format (HEK293); parameters: species or system human; settings: HEK293 GloSensor 40F cGMP cells, 10 μM DETA-NONOate, geometrical mean; read-out: Glo EC50
Description: Human embryonic kidney cells (HEK293) cells expressing GloSensor™ 40F cGMP (Part No: CS182801, Promega) were used to evaluate the activity of test compounds. The luminescent biosensors (engineered luciferase) that were incorporated into these cells detect cGMP formed by the compounds stimulating the sGC enzyme and emit luminescence.
cGMP GloSensor cells were maintained in Dulbecco's Modification of Eagle's Medium (DMEM) supplemented with fetal bovine serum (FBS, 10% final) and hygromycine (200 ug/ml). The day before assay, cells were plated in DMEM with 10% FBS in a 50 μL volume at a density of 1.5×10^4 cells/well in a poly-D-lysine coated 384-well flat white-bottom plate (Corning Cat No 35661). Cells were incubated overnight at 37° C. in a humidified chamber with 5% CO2. The next day, medium was removed and cells were replaced with 40 ul/well of GloSensor™, 2 mM (Promega Cat No E1291). Cells were treated for 90 minutes at 25° C. to allow the substrate to equilibrate in the cells. Test compounds and Diethylenetriamine NONOate (DETA-NONOate) was diluted to 3 mM (20×) in serum-free CO2 independent medium and serially diluted at 4× dilutions to create 5× dose curve from which 10 ul was added to the wells (x μM concentration for test compound solution and 10 μM concentration for DETA-NONOate solution; wherein x is one of the following final concentrations: 30 μM, 7.5 μM, 1.9 μM, 469 nM, 117 nM, 29.3 nM, 7.3 nM, 1.83 nM, 0.46 nM, 0.11 nM, 0.03 nM) For the kinetics studies, luminescense was measured right away for 0.2 sec per well with Envision (Perkin Elmer). For endpoint SAR screening, data were collected after 55 min incubation at room temperature.
(§1) Concentration response data were analyzed using a 4-parameter fit (log (agonist) vs. response-variable slope). The EC50 was interpolated from the curve fit and is defined as the concentration at which the compound elicits 50% of its maximal response. When the experiment was carried out multiple times for a given compound, the geometrical mean of all experiments is reported.

[2] = target: T1, human α2β1 sGC isozyme (Homo sapiens, UniProt P33402+Q02153); assay: cGMP assay in CHO-K1 cells stably expressing human α2β1 sGC isozyme; assay type: cell-based; settings: 10 μM DETA-NONOate
T1 construct: host or cells: CHO-K1
T1 sequence (P33402 1-732): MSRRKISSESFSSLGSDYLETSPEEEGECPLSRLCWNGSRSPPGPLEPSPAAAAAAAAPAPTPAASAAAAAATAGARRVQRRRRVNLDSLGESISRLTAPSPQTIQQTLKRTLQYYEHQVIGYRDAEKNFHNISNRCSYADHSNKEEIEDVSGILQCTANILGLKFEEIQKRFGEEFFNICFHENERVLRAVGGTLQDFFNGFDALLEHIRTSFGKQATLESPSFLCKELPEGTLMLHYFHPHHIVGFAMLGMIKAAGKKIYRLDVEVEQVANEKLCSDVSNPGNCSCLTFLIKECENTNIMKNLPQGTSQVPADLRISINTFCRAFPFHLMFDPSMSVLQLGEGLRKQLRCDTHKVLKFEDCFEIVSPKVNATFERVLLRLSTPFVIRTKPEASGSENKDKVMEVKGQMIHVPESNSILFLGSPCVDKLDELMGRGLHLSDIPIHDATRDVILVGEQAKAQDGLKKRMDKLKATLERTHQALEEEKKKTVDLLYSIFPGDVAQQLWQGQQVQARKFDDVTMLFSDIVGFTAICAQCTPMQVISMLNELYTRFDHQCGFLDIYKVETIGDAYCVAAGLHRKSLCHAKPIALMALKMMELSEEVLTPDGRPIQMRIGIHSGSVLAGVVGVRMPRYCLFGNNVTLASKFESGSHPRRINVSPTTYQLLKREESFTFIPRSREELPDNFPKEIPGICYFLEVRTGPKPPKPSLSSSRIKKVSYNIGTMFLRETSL
T1 sequence (Q02153 1-619): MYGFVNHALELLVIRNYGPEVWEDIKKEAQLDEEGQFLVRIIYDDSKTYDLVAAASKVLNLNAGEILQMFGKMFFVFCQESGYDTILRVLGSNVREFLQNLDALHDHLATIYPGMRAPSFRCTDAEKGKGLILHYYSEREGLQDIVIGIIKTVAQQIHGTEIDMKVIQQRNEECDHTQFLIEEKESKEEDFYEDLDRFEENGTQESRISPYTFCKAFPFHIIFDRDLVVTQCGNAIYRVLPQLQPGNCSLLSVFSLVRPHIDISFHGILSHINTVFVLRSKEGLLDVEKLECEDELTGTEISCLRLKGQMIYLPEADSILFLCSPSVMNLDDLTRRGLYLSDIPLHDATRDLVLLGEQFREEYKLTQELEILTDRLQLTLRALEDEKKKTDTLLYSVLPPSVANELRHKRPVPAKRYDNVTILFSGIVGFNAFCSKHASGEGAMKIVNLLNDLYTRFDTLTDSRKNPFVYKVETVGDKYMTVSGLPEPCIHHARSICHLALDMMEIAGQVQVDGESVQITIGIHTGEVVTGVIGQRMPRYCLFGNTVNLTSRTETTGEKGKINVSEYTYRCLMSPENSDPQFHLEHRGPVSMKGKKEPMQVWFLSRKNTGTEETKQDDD
Experimental: sGC stimulators were dissolved in DMSO as a 10 mM solution and stored at −20° C. To achieve desired test concentrations, stock concentrations were serially diluted into DMSO and then diluted to the appropriate concentration in assay buffer.
CHO-K1 cells stably transfected with human α2β1 sGC isozyme (generated by GenScript for Ironwood) were cultured in F-12K medium (ATCC catalog #30-2004) with 10% fetal calf serum, 4 μg/mL puromycin (Gibco catalog #A11138-03) and 0.4 mg/mL of geneticin (Gibco catalog #10131-027) in a 95% humidified atmosphere containing 5% CO2 in air at 37° C. For GC activity assays, cells were seeded in 384 well poly-D-lysine coated flat bottom plates (Fisher Scientific #08-774-311) in either 50 μL or 70 μL medium at a density of either 3×10^4 cells/well or 15×10^3, respectively. Cells were incubated for 24 hours at 37° C. in a humidified chamber supplemented with 5% CO2.
For each test concentration, the compound was diluted in 100% DMSO to 100-fold of its final assay concentration. Immediately prior to the assay, the solution was diluted 20-fold into HBSS containing calcium, magnesium, and 50 μM DETA-NONOate (5× the final assay concentration). Medium was removed and cells were washed once with 40 μL of HBSS. Cells were then incubated with 40 μL of a solution containing 0.5 mM IBMX in HBSS for 15 min at 37° C. 10 μL from the sGC stimulator/HBSS/DETA-NONOate plate was added to the cells, which were incubated for an additional 20 min at 37° C. Final DMSO concentration was 1%, final DETA-NONOate concentration was 10 μM; and final compound concentrations were 30,000 nM, 6000 nM, 1200 nM, 240 nM, 48 nM, 9.6 nM, 1.92 nM, 0.384 nM, 0.077 nM, 0.015 nM, or 0.003 nM.
Following incubation with compound, assay buffer was removed and 50 μL of ice-cold 10% acetic acid+150 ng/mL internal standard (+3 cGMP) was added to each well. Samples were incubated on ice for 30-60 min. Following centrifugation at 4° C. for 5 min at 1000×g to pellet cell debris, the supernatant was transferred to a clean plate and the samples analyzed for cGMP content.
as §1, with “Data” for “Concentration response data”, “with” for “using”, “(log(agonist)” for “(log (agonist)”, “slope) using GraphPad Prism Software v.8.” for “slope).”

Cc1cc(F)c(Cc2nc(-c3ncc(Cl)c(O)n3)cn3ccnc23)cc1F [Compound I-17, 5-Chloro-2-(8-(2,5-difluoro-4-methylbenzyl)imidazo[1,2-a]pyrazin-6-yl)pyrimidin-4-ol]
EC50 [1]: ≤ 100 nM | EC50 [2]: ≤ 100 nM
